Source: patent US20100113366A1, “USE OF PROLINE-RICH PEPTIDE DERIVED FROM HYPOTHALAMUS FOR THE MANUFACTURE OF A MEDICAMENT FOR THE TREATMENT AND/OR PROPHYLAXIS OF CATTLE LEUCOSIS” (priority 2005, published 2010)
Where no end group is shown, it is not given here.

Test system: cows with leucosis
Test: hematological and cytomorphological blood indices of cows with leucosis after PRP-1 administration in vivo
Conditions: 48 h after 1st and 2nd administration; microscopic analysis
Method: The cows with leucosis were administered with the PRP-1 solution in concentration 1.57×10^−4 g in 1 ml in a dose of 4×10^−3 ml/kg live weight of animal twice in 48 h.
The blood samples were taken from the jugular vain of animal into the test tubes with anti-coagulant Trilon-B before administration, in 48 h after 1st and 2nd administrations, as well as in 33 days after the 2nd administration. The blood hematomorphological and cytomorphological studies were carried out according to the available methods of veterinary hematology.

AGAPEPAEPAQPGVY [PRP-1, Ala-Gly-Ala-Pro-Glu-Pro-Ala-Glu-Pro-Ala-Gln-Pro-Gly-Val-Tyr]
morphological changes of small lymphocytes with high resistance, neutrophils, eosinophils and monocytes in blood smears: no any morphological changes
